What follows are molecules tested against T1, chimeric human H3 receptor (Homo sapiens, UniProt Q9Y5N1, E19D) (assay: Chimeric human H3 receptor GTP binding assay (agonist-stimulated GTP-gamma35S binding, Example 7)). Conditions: assay of Example 7; "*" in Ki of Table II; read-out: Ki.
T1 construct: made in house; host or cells: Sf9 insect cells (baculovirus infection); P2 membrane preparation
Type: biochemical
Method in brief: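 Sf9 membranes co-expressing the chimeric receptor and heterotrimeric G-protein subunits, 35 μg protein per tube, in pH 7.4 Tris buffer with 10 μM GDP. Test compounds at 10^−10 to 10^−6 M with 1 μM histamine, 60 min at room temperature. Filter-bound GTP-gamma^35S read by scintillation; IC50 from non-linear regression of dose-response curves.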

T1 sequence (Q9Y5N1 with tags, fused parts or gaps E19D): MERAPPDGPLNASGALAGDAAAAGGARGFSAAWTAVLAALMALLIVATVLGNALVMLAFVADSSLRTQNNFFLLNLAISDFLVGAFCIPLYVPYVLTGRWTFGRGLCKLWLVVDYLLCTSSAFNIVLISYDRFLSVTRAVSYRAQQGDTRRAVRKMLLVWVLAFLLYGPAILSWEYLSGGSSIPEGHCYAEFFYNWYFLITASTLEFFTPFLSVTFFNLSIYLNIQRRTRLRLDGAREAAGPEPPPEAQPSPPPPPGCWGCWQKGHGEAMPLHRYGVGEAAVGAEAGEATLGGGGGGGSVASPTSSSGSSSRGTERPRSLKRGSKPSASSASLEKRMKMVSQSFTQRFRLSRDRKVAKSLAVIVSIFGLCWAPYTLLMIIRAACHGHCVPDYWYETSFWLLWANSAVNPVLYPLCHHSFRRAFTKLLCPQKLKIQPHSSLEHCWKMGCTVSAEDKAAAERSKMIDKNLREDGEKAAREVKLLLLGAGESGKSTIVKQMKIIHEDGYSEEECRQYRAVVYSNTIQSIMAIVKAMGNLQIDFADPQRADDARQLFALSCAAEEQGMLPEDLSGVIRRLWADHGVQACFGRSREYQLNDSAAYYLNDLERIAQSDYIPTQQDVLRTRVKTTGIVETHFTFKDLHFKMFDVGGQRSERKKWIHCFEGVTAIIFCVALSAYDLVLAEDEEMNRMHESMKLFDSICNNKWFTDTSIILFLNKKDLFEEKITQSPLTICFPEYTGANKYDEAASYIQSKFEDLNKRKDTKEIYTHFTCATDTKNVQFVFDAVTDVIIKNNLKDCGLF

**Q.** How did the Ki turn out when `CC(C)CN1CCN(C(=O)CN2CCN(c3ccc4c(c3)CCC4=O)CC2)CC1` [Compound 1162, 5-{4-[2-(4-isobutylpiperazin-1-yl)-2-oxoethyl]piperazin-1-yl}indan-1-one] was run?
**A.** < 1 µM

**Q.** How did the Ki turn out when `O=C1CCCc2cc(N3CCN(CC(=O)N4CCN(C5CCC5)CC4)CC3)ccc21` [Compound 1165, 6-{4-[2-(4-cyclobutylpiperazin-1-yl)-2-oxoethyl]piperazin-1-yl}-3,4-dihydronaphthalen-1(2H)-one] was run?
**A.** < 1 µM

**Q.** How did the Ki turn out when `O=C(NC1CCCC1)c1ccc(N2CCN(CC(=O)N3CCN(C4CCC4)CC3)CC2)nn1` [Compound 1166, 6-{4-[2-(4-cyclobutylpiperazin-1-yl)-2-oxoethyl]piperazin-1-yl}-N-cyclopentylpyridazine-3-carboxamide] was run?
**A.** < 1 µM

**Q.** With `CNC(=O)c1ccc(N2CCN(CC(=O)N3CCN(C4CCC4)CC3)CC2)nc1` [Compound 1167, 6-{4-[2-(4-cyclobutylpiperazin-1-yl)-2-oxoethyl]piperazin-1-yl}-N-methylnicotinamide] as the molecule, how does the Ki read?
**A.** < 1 µM

**Q.** Which Ki does the source give for `CCN(C(=O)c1ccc(N2CCN(CC(=O)N3CCN(C4CCC4)CC3)CC2)nc1)C(C)C` [Compound 1168, 6-{4-[2-(4-cyclobutylpiperazin-1-yl)-2-oxoethyl]piperazin-1-yl}-N-ethyl-N-isopropylnicotinamide] here?
**A.** < 1 µM

**Q.** For `CC(C)N(C)C(=O)c1ccc(N2CCN(CC(=O)N3CCN(C4CCC4)CC3)CC2)nc1` [Compound 1169, 6-{4-[2-(4-cyclobutylpiperazin-1-yl)-2-oxoethyl]piperazin-1-yl}-N-isopropyl-N-methylnicotinamide], which Ki is on record?
**A.** < 1 µM

**Q.** With `CN(C(=O)c1ccc(N2CCN(CC(=O)N3CCN(C4CCC4)CC3)CC2)nc1)C1CCCCC1` [Compound 1170, 6-{4-[2-(4-cyclobutylpiperazin-1-yl)-2-oxoethyl]piperazin-1-yl}-N-cyclohexyl-N-methylnicotinamide] as the molecule, how does the Ki read?
**A.** < 1 µM

**Q.** For `CCN(C(=O)c1ccc(N2CCN(CC(=O)N3CCN(C4CCC4)CC3)CC2)nc1)C1CCCCC1` [Compound 1171, 6-{4-[2-(4-cyclobutylpiperazin-1-yl)-2-oxoethyl]piperazin-1-yl}-N-cyclohexyl-N-ethylnicotinamide], which Ki is on record?
**A.** < 1 µM

**Q.** Which Ki does the source give for `COCCN(C(=O)c1ccc(N2CCN(CC(=O)N3CCN(C4CCC4)CC3)CC2)nc1)C(C)C` [Compound 1172, 6-{4-[2-(4-cyclobutylpiperazin-1-yl)-2-oxoethyl]piperazin-1-yl}-N-isopropyl-N-(2-methoxyethyl)nicotinamide] here?
**A.** < 1 µM

**Q.** `CCC(C)CNC(=O)c1ccc(N2CCN(CC(=O)N3CCN(C4CCC4)CC3)CC2)nc1` (stereo not shown) [Compound 1173, 6-{4-[2-(4-cyclobutylpiperazin-1-yl)-2-oxoethyl]piperazin-1-yl}-N-(2-methylbutyl)nicotinamide] was tested. Which Ki did it give?
**A.** < 1 µM

**Q.** For `CCNC(=O)c1ccc(N2CCN(CC(=O)N3CCN(C4CCC4)CC3)CC2)nc1` [Compound 1174, 6-{4-[2-(4-cyclobutylpiperazin-1-yl)-2-oxoethyl]piperazin-1-yl}-N-ethylnicotinamide], which Ki is on record?
**A.** < 1 µM

**Q.** Which Ki does the source give for `CCCNC(=O)c1ccc(N2CCN(CC(=O)N3CCN(C4CCC4)CC3)CC2)nc1` [Compound 1175, 6-{4-[2-(4-cyclobutylpiperazin-1-yl)-2-oxoethyl]piperazin-1-yl}-N-propylnicotinamide] here?
**A.** < 1 µM

**Q.** For `O=C(NCC1CC1)c1ccc(N2CCN(CC(=O)N3CCN(C4CCC4)CC3)CC2)nc1` [Compound 1176, 6-{4-[2-(4-cyclobutylpiperazin-1-yl)-2-oxoethyl]piperazin-1-yl}-N-(cyclopropylmethyl) nicotinamide], which Ki is on record?
**A.** < 1 µM

**Q.** How did the Ki turn out when `CC(C)CNC(=O)c1ccc(N2CCN(CC(=O)N3CCN(C4CCC4)CC3)CC2)nc1` [Compound 1177, 6-{4-[2-(4-cyclobutylpiperazin-1-yl)-2-oxoethyl]piperazin-1-yl}-N-isobutylnicotinamide] was run?
**A.** < 1 µM

**Q.** Which Ki does the source give for `CCCCCNC(=O)c1ccc(N2CCN(CC(=O)N3CCN(C4CCC4)CC3)CC2)nc1` [Compound 1178, 6-{4-[2-(4-cyclobutylpiperazin-1-yl)-2-oxoethyl]piperazin-1-yl}-N-pentylnicotinamide] here?
**A.** < 1 µM

**Q.** `CC(C)CCNC(=O)c1ccc(N2CCN(CC(=O)N3CCN(C4CCC4)CC3)CC2)nc1` [Compound 1179, 6-{4-[2-(4-cyclobutylpiperazin-1-yl)-2-oxoethyl]piperazin-1-yl}-N-(3-methylbutyl)nicotinamide] was tested. Which Ki did it give?
**A.** < 1 µM

**Q.** Which Ki does the source give for `O=C(NCC(F)(F)F)c1ccc(N2CCN(CC(=O)N3CCN(C4CCC4)CC3)CC2)nc1` [Compound 1180, 6-{4-[2-(4-cyclobutylpiperazin-1-yl)-2-oxoethyl]piperazin-1-yl}-N-(2,2,2-trifluoroethyl) nicotinamide] here?
**A.** < 1 µM

**Q.** For `O=C(NC1CCCCC1)c1ccc(N2CCN(CC(=O)N3CCN(C4CCC4)CC3)CC2)nc1` [Compound 1181, 6-{4-[2-(4-cyclobutylpiperazin-1-yl)-2-oxoethyl]piperazin-1-yl}-N-cyclohexylnicotinamide], which Ki is on record?
**A.** < 1 µM

**Q.** For `CC(C)NC(=O)c1ccc(N2CCN(CC(=O)N3CCN(C4CCC4)CC3)CC2)nc1` [Compound 1182, 6-{4-[2-(4-cyclobutylpiperazin-1-yl)-2-oxoethyl]piperazin-1-yl}-N-isopropylnicotinamide], which Ki is on record?
**A.** < 1 µM

**Q.** How did the Ki turn out when `O=C(NC1CCCC1)c1ccc(N2CCN(CC(=O)N3CCN(C4CCC4)CC3)CC2)nc1` [Compound 1183, 6-{4-[2-(4-cyclobutylpiperazin-1-yl)-2-oxoethyl]piperazin-1-yl}-N-cyclopentylnicotinamide] was run?
**A.** < 1 µM

**Q.** How did the Ki turn out when `CCCC(C)NC(=O)c1ccc(N2CCN(CC(=O)N3CCN(C4CCC4)CC3)CC2)nc1` (stereo not shown) [Compound 1184, 6-{4-[2-(4-cyclobutylpiperazin-1-yl)-2-oxoethyl]piperazin-1-yl}-N-(1-methylbutyl)nicotinamide] was run?
**A.** < 1 µM

**Q.** For `O=C(NC1CCCCCC1)c1ccc(N2CCN(CC(=O)N3CCN(C4CCC4)CC3)CC2)nc1` [Compound 1185, 6-{4-[2-(4-cyclobutylpiperazin-1-yl)-2-oxoethyl]piperazin-1-yl}-N-cycloheptylnicotinamide], which Ki is on record?
**A.** < 1 µM

**Q.** Which Ki does the source give for `O=C(NCC1CCCCC1)c1ccc(N2CCN(CC(=O)N3CCN(C4CCC4)CC3)CC2)nc1` [Compound 1186, 6-{4-[2-(4-cyclobutylpiperazin-1-yl)-2-oxoethyl]piperazin-1-yl}-N-(cyclohexylmethyl) nicotinamide] here?
**A.** < 1 µM

**Q.** How did the Ki turn out when `CC(C)(C)CNC(=O)c1ccc(N2CCN(CC(=O)N3CCN(C4CCC4)CC3)CC2)nc1` [Compound 1187, 6-{4-[2-(4-cyclobutylpiperazin-1-yl)-2-oxoethyl]piperazin-1-yl}-N-(2,2-dimethylpropyl) nicotinamide] was run?
**A.** < 1 µM

**Q.** `CCC(CC)CNC(=O)c1ccc(N2CCN(CC(=O)N3CCN(C4CCC4)CC3)CC2)nc1` [Compound 1188, 6-{4-[2-(4-cyclobutylpiperazin-1-yl)-2-oxoethyl]piperazin-1-yl}-N-(2-ethylbutyl)nicotinamide] was tested. Which Ki did it give?
**A.** < 1 µM

**Q.** `N#Cc1ccc(N2CCN(CC(=O)N3CCN(C4CCC4)CC3)CC2)nn1` [Compound 1189, 6-{4-[2-(4-cyclobutylpiperazin-1-yl)-2-oxoethyl]piperazin-1-yl}pyridazine-3-carbonitrile] was tested. Which Ki did it give?
**A.** < 1 µM

**Q.** For `O=C(CN1CCC2(CC1)C(=O)NCN2c1ccccc1)N1CCN(C2CCC2)CC1` [Compound 1190], which Ki is on record?
**A.** < 1 µM

**Q.** For `CC(C)N1CN(c2ccccc2)C2(CCN(CC(=O)N3CCN(C4CCC4)CC3)CC2)C1=O` [Compound 1191], which Ki is on record?
**A.** < 1 µM
